Measured values published in US12564560B1, “Selective serotonin receptor modulators and methods of making and using the same” (Park City Bio, LLC, priority 2024, dated 2026).

Key:
Format in all cases: cell-based
5-HT2A = target: T1, 5-HT2A (Homo sapiens, UniProt P28223); assay: 5-HT2 receptor-mediated Gq activation via Gq/γ1 dissociation BRET; settings: for EC50: HEK293T cells; for Hall or N-Hall?: hallucinogenic or non-hallucinogenic effect predicted from level of 5-HT2A agonist efficacy
T1 construct: expressed in transfected cells; host or cells: HEK293T
T1 sequence (P28223 whole entry): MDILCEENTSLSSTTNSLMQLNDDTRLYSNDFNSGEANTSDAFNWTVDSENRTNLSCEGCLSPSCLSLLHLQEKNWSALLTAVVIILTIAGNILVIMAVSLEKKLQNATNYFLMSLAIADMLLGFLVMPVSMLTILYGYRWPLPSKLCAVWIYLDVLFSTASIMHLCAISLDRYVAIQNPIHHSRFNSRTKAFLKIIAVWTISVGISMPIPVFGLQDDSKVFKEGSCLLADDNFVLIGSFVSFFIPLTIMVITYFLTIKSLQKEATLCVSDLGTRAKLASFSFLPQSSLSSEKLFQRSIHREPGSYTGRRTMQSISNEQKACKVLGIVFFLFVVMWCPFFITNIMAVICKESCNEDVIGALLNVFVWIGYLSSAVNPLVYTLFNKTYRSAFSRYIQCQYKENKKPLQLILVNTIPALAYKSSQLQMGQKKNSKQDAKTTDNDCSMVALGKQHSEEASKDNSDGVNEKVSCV
From the text: (§1) To measure 5-HT2 receptor-mediated Gq activation via Gq/y1 dissociation as measured by Bioluminescence Resonance Energy Transfer (BRET) (McCorvy J D, Wacker D, Wang S, Agegnehu B, Liu J, Lansu K, Tribo AR, Olsen RHJ, Che T, Jin J, Roth BL. Structural determinants of 5-HT2B receptor activation and biased agonism. Nat Struct Mo/Biol. 2018; 25(9): 787-96), HEK293T cells were sub-cultured in Dulbecco's Modified Eagle Medium (DMEM) supplemented with 10% dialyzed fetal bovine serum (FBS) and were co-transfected in a 1:1:1:1 ratio with Rluc8-fused human Gaq (Gaq-Rluc8), a GFP2-fused to the C-terminus of human Gy1(Gy1-GFP2), human GI31, and 5-HT2 receptor using TransiT-2020. After at least 18-24 hours, transfected cells were plated in poly-lysine coated 96-well white clear bottom cell culture plates in DMEM containing 1% dialyzed FBS at a density of 25,000-40,000 cells in 200 μL per well and incubated overnight. The following day, medium was decanted, and cells were washed with 60 μL of drug buffer (1×HBSS, 20 mM HEPES, pH 7.4), then 60 μL of drug buffer was added per well. Cells were pre-incubated at in a humidified atmosphere at 37° C. before receiving drug stimulation. Drug stimulation utilized 30 μL addition of drug (3X) diluted in McCorvy buffer (1×HBSS, 20 mM HEPES, pH 7.4, supplemented with 0.3% BSA fatty acid free, 0.03% ascorbic acid) and plates were incubated at for 1 hour at 37° C. Substrate addition occurred 15 minutes before reading and utilized 10 μL of the Rluc substrate coelenterazine 400a for Gq dissociation BRET^2 (Prolume/Nanolight, 5 μM final concentration). Plates were read for luminescence at 400 nm and fluorescent GFP2 emission at 510 nm at 1 second per well using a Mithras LB940 multimode microplate reader (e.g. one provided by Berthold). The BRET ratios of fluorescence/luminescence were calculated per well and were plotted as a function of drug concentration using Graphpad Prism 8 (Graphpad Software Inc., San Diego, CA). Data were normalized to % 5-HT stimulation and analyzed using nonlinear regression “log(agonist) vs. response” to yield Emax and EC50 parameter estimates. Results are shown in Table 5, where A=<10; B=10 to <100; C=100 to 1000 and D=>1000; +++=>80%; ++=50 to 80%; and +=<50%; NA=No Activity. […] Hallucinogenic (“Hall”) or non-hallucinogenic (“N-Hall”) plastogenic effect is predicted for compounds based on the level 5-HT2A agonist efficacy.

5-HT2B = target: T2, 5-HT2B (Homo sapiens, UniProt P41595); assay: as above; settings: HEK293T cells
T2 construct: expressed in transfected cells; host or cells: HEK293T
T2 sequence (P41595 whole entry): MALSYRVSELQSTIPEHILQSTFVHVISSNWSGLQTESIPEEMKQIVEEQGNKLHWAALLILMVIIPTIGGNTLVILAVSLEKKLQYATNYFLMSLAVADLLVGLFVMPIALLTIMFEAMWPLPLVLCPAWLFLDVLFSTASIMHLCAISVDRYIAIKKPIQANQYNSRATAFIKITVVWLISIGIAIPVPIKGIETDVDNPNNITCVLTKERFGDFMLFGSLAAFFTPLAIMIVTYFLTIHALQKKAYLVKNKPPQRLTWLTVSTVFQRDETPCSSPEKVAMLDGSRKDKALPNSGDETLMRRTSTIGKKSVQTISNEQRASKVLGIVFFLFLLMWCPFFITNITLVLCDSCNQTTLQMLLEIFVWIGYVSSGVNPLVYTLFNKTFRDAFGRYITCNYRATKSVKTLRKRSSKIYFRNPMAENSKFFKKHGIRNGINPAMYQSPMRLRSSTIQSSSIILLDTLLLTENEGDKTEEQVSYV
From the text: as §1

5-HT2C [1] = target: T3, 5-HT2C (Homo sapiens, UniProt P28335); assay: as above; design: expressed in transfected cells; host or cells: HEK293T
T3 sequence (P28335 33-458): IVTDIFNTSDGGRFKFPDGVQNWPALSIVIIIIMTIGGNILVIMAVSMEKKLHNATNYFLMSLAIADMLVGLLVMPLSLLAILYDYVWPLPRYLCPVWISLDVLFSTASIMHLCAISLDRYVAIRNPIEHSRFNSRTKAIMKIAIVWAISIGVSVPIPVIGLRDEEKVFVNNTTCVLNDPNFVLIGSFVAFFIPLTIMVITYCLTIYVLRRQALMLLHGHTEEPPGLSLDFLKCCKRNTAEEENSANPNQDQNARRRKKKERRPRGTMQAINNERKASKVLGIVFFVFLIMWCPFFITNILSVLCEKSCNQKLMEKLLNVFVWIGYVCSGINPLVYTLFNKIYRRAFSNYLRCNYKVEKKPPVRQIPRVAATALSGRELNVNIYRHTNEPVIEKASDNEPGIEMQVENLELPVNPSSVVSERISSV
From the text: as §1

5-HT2C [2] = target: T3, 5-HT2C; assay: 5-HT2C Gq signaling bias compared to β-arrestin signaling; design: expressed in transfected cells; host or cells: HEK293T (Gq arm; β-arrestin arm not described); settings: primary 5-HT2C signaling via Gq compared to β-arrestin
From the text: To measure 5-HT2 receptor-mediated Gq activation via Gq/y1 dissociation as measured by Bioluminescence Resonance Energy Transfer (BRET) (McCorvy J D, Wacker D, Wang S, Agegnehu B, Liu J, Lansu K, Tribo AR, Olsen RHJ, Che T, Jin J, Roth BL. Structural determinants of 5-HT2B receptor activation and biased agonism. Nat Struct Mo/Biol. 2018; 25(9): 787-96), HEK293T cells were sub-cultured in Dulbecco's Modified Eagle Medium (DMEM) supplemented with 10% dialyzed fetal bovine serum (FBS) and were co-transfected in a 1:1:1:1 ratio with Rluc8-fused human Gaq (Gaq-Rluc8), a GFP2-fused to the C-terminus of human Gy1(Gy1-GFP2), human GI31, and 5-HT2 receptor using TransiT-2020. After at least 18-24 hours, transfected cells were plated in poly-lysine coated 96-well white clear bottom cell culture plates in DMEM containing 1% dialyzed FBS at a density of 25,000-40,000 cells in 200 μL per well and incubated overnight. The following day, medium was decanted, and cells were washed with 60 μL of drug buffer (1×HBSS, 20 mM HEPES, pH 7.4), then 60 μL of drug buffer was added per well. Cells were pre-incubated at in a humidified atmosphere at 37° C. before receiving drug stimulation. […] Substrate addition occurred 15 minutes before reading and utilized 10 μL of the Rluc substrate coelenterazine 400a for Gq dissociation BRET^2 (Prolume/Nanolight, 5 μM final concentration). Plates were read for luminescence at 400 nm and fluorescent GFP2 emission at 510 nm at 1 second per well using a Mithras LB940 multimode microplate reader (e.g. one provided by Berthold). The BRET ratios of fluorescence/luminescence were calculated per well and were plotted as a function of drug concentration using Graphpad Prism 8 (Graphpad Software Inc., San Diego, CA). Data were normalized to % 5-HT stimulation and analyzed using nonlinear regression “log(agonist) vs. response” to yield Emax and EC50 parameter estimates. […]

CNC[C@H]1C[C@@H]1c1cc(F)ccc1OC
EC50 (5-HT2A; Gq dissociation BRET): 100 to 1000 nM | Hall or N-Hall? (5-HT2A): N-Hall | EC50 (5-HT2B): 10 to 100 nM | EC50 (5-HT2C [1]): 10 to 100 nM | 5-HT2C Gq signaling bias? (5-HT2C [2]): Yes

CNCC1CC1c1cc(F)ccc1SC (stereo not drawn)
EC50 (5-HT2A; Gq dissociation BRET): 100 to 1000 nM | Hall or N-Hall? (5-HT2A): N-Hall | EC50 (5-HT2C [1]): < 10 nM | 5-HT2C Gq signaling bias? (5-HT2C [2]): Yes

CSc1ccc(F)cc1C1CC1CN(C)C (stereo not drawn)
EC50 (5-HT2A; Gq dissociation BRET): > 1000 nM | Emax (5-HT2A; Gq dissociation BRET, normalized to % 5-HT stimulation): < 50% | Hall or N-Hall? (5-HT2A): N-Hall | EC50 (5-HT2C [1]): 10 to 100 nM | Emax (5-HT2C [1]; read-out: 5-HT2C Emax): < 50% | 5-HT2C Gq signaling bias? (5-HT2C [2]): Yes
